Laboratory results published in paper PMC7616177, “From structure to clinic: Design of a muscarinic M1 receptor agonist with the potential to treat Alzheimer’s disease” (Cell, 2021).

Experiments:
[1] = test system: CA1 neurons; test: In vivo electrophysiological recording of CA1 neurons in anaesthetised rats; design: species or system rat
[2] = test system: rats; test: Safety pharmacology and toxicology clinical signs, rat; format: in vivo
From the text: The rat and dog were appropriate species in which to conduct nonclinical safety evaluation and HTL9936. Male and female rates of the RccHan: WIST strain were obtained from Harlan, Bicester, UK. and the animals were approximately seven to eight weeks old at the start of dosing. Throughout the study the animals had access ad libitum to SQC Rat and Mouse Maintenance Diet No 1, Expanded, (Special Diets Services Ltd, Witham, UK). […] The temperature and relative humidity ranges were maintained in the specified ranges of 20 to 24°C and 45 to 65%, respectively.

[3] = target: T1, M4-receptor (Homo sapiens, UniProt P08173); test: [3H]-NMS equilibrium radioligand binding, M4
T1 sequence (P08173 1-479): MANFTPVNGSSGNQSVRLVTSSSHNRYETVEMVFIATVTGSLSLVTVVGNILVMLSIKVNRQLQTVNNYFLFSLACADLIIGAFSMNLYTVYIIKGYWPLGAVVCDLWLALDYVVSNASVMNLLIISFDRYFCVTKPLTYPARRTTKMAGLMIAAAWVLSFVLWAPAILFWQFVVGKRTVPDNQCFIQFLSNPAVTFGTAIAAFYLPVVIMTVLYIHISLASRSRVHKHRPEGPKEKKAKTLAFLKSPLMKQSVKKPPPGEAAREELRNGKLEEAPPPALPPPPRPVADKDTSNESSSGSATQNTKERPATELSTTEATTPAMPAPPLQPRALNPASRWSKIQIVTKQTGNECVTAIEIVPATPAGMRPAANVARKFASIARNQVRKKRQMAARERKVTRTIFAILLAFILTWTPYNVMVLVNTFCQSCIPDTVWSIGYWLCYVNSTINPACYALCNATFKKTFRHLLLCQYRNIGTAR
Procedure: Non-specific binding (NSB) was determined in the presence of 1 μM atropine). Reactions were terminated by rapid filtration onto GF/B filter paper (Whatman, Maidstone, UK) and three washes with 3 mL ice-cold 0.9% NaCl using a Brandel harvester (M-24TI; Brandel, Fort Lauderdale, FL). Membrane bound radioactivity was determined by liquid scintillation (Ultima Gold; PerkinElmer) counting.
Data was analyzed using PRISM (GraphPad). For saturation binding, non-specific and total binding data were analyzed to a one site binding model. DPM was converted to fmol/mg to compare across constructs. […] […] The Cheng Prusoff equation was used to estimate pKi ([Cheng and Prusoff, 1973]).

[4] = test system: Wistar rats; test: Scopolamine-induced amnesia in passive avoidance; format: in vivo, rat
Procedure: Male adult Wistar rats (Harlan, UK; approximately 11 weeks of age) were acclimatised to the experimental rooms for three days (study days 1-3) and handled for a further two days (study days 4 and 5) prior to the experiment.
Donepezil (0.01 and 0.1 mg/kg) was administered via intraperitoneal injection (in saline) 60 min prior to training. Rats were trained in a single-trial, step-through, light-dark passive avoidance paradigm. The training apparatus consisted of a chamber 300 mm in length, 260 mm wide, and 270 mm in height. The front and top were transparent, allowing the experimenter to observe the behavior of the animal inside the apparatus. The chamber was divided into two compartments, separated by a central shutter that contained a small opening (50 mm wide and 75 mm high) set close to the front of the chamber. The smaller of the compartments measured 90 mm in width and contained a low-light (~200 lux) illumination source. The larger compartment measured 210 mm in width and was not illuminated. The floor of this dark compartment consisted of a grid of 16 horizontal stainless-steel bars that were 5 mm in diameter and spaced 12.5 mm apart. A current generator supplied 0.75 mA to the grid floor, which was scrambled once every 0.5 s across the 16 bars.
Animals were placed facing the rear of the light compartment of the apparatus, immediately after which, spontaneous behavior was assessed. The timer was started once the animal completely turned to face the front of the chamber. Latency to enter the dark chamber was recorded, and having completely entered the dark compartment foot shock was administered to the animal, which immediately returned to the light compartment. Animals were then returned to their home cages. Between each training session, both compartments of the chamber were cleaned to remove any confounding olfactory cues. Vehicle (saline) or scopolamine (1 mg/kg) was administered to rats 6 hours after training. Recall of the inhibitory stimulus was evaluated 24 hour post-training on study day 7, by returning the animal into the light chamber and recording their latency to enter the dark chamber, a criterion time of 600 s was employed. Observation of the animals was made by overhead video camera linked to a monitor behind a screened area. Animal treatment was blinded to the observer.

[5] = Rat CNS distribution and estimated unbound brain exposure; format: in vivo
[6] = target: T2, human M5-receptor (Homo sapiens, UniProt P08912); test: M5-receptor functional agonist assay; format: cell-based
T2 construct: expressed in transfected cells; host or cells: not described
T2 sequence (P08912 whole entry): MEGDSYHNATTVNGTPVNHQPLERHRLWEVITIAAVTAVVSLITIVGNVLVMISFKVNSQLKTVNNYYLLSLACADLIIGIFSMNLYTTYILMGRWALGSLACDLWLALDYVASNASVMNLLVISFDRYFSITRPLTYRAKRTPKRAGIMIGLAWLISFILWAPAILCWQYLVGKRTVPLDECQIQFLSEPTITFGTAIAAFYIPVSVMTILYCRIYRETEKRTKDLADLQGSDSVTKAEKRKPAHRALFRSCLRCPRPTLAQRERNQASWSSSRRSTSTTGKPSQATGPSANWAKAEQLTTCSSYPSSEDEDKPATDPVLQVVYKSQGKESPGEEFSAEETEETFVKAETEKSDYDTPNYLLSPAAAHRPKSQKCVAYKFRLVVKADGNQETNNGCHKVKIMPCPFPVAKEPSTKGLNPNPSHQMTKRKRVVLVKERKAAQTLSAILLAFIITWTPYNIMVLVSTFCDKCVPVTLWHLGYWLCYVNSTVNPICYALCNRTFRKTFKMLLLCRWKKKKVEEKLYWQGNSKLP

[7] = target: T3, human M1 receptor (Homo sapiens, UniProt P11229); test: Inositol phosphate (IP1) accumulation in CHO Flp-In cells; format: cell-based
T3 construct: expressed in transfected cells
T3 sequence (P11229 1-460): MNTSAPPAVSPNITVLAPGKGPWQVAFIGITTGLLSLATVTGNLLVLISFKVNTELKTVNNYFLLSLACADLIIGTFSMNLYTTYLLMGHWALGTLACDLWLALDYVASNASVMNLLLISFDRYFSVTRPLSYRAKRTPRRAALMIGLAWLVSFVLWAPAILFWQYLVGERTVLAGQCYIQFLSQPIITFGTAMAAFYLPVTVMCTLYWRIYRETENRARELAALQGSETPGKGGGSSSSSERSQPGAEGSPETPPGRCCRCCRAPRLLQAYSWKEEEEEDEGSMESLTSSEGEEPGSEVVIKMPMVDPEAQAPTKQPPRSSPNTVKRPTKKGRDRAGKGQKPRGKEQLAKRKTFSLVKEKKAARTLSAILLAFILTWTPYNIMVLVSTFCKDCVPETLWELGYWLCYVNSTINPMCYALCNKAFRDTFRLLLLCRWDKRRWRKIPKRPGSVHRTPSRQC

## CCOC(=O)N1CCC[C@H](N2CCC(C(=O)NC3(C)CCC3)CC2)CC1 [HTL9936, ethyl (S)-4-(4-((1-methylcyclobutyl)carbamoyl)piperidin-1-yl)azepane-1-carboxylate]
[1]; 10 mg/kg i.v., rats
  In vivo firing rate of CA1 neurons vs vehicle: significant increase in the in vivo firing rate of CA1 neurons
[1]; adult rats, 1 and 10 mg/kg, reversed by scopolamine i.v.
  In vivo neuronal firing rate: concentration-dependent increase in neuronal firing rate
[2]
  Cu,pl without cholinergic clinical signs: 1,372 nM
  Plasma exposure without cholinergic clinical signs: up to 732 ng/mL
[3]
  Ki: 3.98 µM
[4]; rat passive avoidance
  Maximal response compared with donepezil 0.1 mg/kg: equivalent to that obtained using the clinically approved acetylcholinesterase inhibitor donepezil
[4]; rat passive avoidance, HTL9936 3 mg/kg
  Response alone: no response alone
[4]; rat, 3, 10 or 30 mg/kg p.o., scopolamine 1 mg/kg i.p.
  Effect on scopolamine-induced amnesia: reversed in a dose-dependent manner
[5]; 1 mg/kg intravenous and 10 mg/kg oral
  Distribution into the CNS: significant distribution into the CNS
[5]; 3 mg/kg p.o.
  Estimated unbound drug in the brain Cu,br: 79 nM
[5]; 10 mg/kg p.o.
  Estimated unbound drug in the brain Cu,br: 262 nM
[5]; 30 mg/kg p.o.
  Estimated unbound drug in the brain Cu,br: 786 nM
[6]
  M5-receptor agonism: no detectable agonism
[7]
  EC50: 0.631 µM
